Assay [1] has as its target Sodium-dependent dopamine transporter (Homo sapiens, UniProt Q01959). As to the kind of experiment: Displacement of [3H]-WIN35428 from recombinant human DAT expressed in HEK cell membranes after 90 mins by scintillation counting method. Background: In a radioligand displacement assay an active substance lowers the binding of a labelled ligand.
The target of another assay is D(3) dopamine receptor (Homo sapiens, UniProt P35462). As to the kind of experiment: Displacement of [3H]-N-methylspiperone from recombinant human D3R expressed in HEK cell membranes after 90 mins by scintillation counting method.

These results are taken from BindingDB's records for doi:10.1021/acs.jmedchem.8b00401 (2019).

pKi: −log10 of the molar value.

A word on the pKi: it is −log10 of the Ki, conventionally taken in molar units.

Chain of Sodium-dependent dopamine transporter (Q01959 whole entry): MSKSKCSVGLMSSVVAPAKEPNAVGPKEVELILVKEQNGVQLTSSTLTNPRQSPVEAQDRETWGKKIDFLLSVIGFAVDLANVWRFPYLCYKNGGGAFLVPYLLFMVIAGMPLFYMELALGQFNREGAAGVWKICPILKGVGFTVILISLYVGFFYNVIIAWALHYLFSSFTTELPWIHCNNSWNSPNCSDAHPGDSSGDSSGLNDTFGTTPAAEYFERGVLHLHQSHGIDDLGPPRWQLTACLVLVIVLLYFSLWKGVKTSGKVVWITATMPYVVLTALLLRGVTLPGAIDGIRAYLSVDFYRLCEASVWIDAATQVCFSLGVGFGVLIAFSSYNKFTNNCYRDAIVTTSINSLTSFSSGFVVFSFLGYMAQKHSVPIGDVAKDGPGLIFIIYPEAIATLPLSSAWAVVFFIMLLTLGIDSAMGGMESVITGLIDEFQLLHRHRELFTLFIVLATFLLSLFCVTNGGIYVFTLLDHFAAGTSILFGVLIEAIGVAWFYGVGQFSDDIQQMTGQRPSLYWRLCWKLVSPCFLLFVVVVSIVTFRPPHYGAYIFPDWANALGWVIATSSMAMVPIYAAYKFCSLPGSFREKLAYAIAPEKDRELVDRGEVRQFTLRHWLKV
Chain of D(3) dopamine receptor (P35462 as listed by the source): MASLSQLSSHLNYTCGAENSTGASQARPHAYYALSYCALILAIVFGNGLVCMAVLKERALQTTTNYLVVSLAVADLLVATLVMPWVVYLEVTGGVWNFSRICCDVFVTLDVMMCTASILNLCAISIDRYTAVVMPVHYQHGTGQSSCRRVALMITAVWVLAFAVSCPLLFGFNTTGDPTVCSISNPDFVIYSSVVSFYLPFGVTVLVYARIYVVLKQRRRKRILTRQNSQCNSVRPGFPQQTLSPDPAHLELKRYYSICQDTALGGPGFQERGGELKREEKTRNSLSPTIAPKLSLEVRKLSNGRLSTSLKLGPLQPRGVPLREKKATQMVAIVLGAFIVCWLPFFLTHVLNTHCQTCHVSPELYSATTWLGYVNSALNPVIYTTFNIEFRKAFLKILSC

As to `CCCCCCCCCCC[C@@H]1CCN[C@H](C(=O)NCC(O)CO)C1` (some centres not stated), the pKi in assay [1] is 5.74; on D(3) dopamine receptor it was 5.33.
